What was measured:
[1] = biological target: T1, Ire1KR32 (Saccharomyces cerevisiae, UniProt P32361); assay: RNase cleavage assay with Ire1 cytosolic constructs (Ire1KR32), co-factors and kinase inhibitors; type: biochemical
T1 construct: Overview of the Ire1 constructs; GST (N); made in house; host or cells: E. coli BL21 CodonPlus (RIPL)
T1 sequence (P32361 with tags, fused parts or gaps): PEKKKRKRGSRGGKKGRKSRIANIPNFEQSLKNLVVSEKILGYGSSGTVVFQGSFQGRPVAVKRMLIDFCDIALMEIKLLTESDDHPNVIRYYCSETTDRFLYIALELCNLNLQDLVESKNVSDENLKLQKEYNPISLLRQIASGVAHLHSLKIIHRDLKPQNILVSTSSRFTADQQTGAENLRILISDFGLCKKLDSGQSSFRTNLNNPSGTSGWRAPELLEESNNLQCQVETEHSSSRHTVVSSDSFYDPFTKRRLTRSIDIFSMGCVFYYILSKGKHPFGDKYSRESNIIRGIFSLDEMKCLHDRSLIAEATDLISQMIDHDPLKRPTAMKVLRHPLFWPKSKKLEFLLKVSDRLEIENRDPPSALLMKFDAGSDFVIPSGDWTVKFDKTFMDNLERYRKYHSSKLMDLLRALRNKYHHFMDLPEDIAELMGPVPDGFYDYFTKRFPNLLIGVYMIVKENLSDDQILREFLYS
Procedure: (§1) RNA cleavage reactions were conducted at 30° C. in buffer containing 20 mM HEPES (pH 7.5), 70 mM NaCl, 2 mM ADP (pH 7.0), 2 mM Mg(OAc)2, 5 mM DTT, 5% glycerol, less than 1 nM ^32p-labeled RNA substrate, and 3 nM-20 μM Ire1. Reaction solutions and buffers were designed using Biochem Lab Solutions 3.5. Reactions were prepared such that 1 μl of RNA was added to 9 μl of pre-warmed reaction mixture containing all components except RNA. Typically, 3-10 minute time courses were collected starting from 5 seconds for the first time point. At time intervals, 1 μl of solution was withdrawn from each reaction and mixed wish 6 μl stop solution containing 10 M urea, 0.1% SDS, 0.1 mM EDTA, 0.05% xylene cyanol, and 0.05% bromophenol blue. The samples were separated by a denaturing 10% PAGE and exposed on a phosphor storage screen. The screens were scanned on a Storm or a Typhoon instrument and quantified using ImageQuant 5.0 or GelQuant.NET 1.4 programs. The data were plotted and fit in SigmaPlot 6.0.
Variants of the cytosolic portion of Ire1 that contain the kinase and the RNase domains (Ire1KR) and Ire1KR extended by 24 (Ire1KR24) or 32 (Ire1KR32) amino acids towards the N-terminus (FIG. 1A, FIG. 1C, FIG. 7) were prepared. These additional amino acid extensions are part of a ˜100 amino acid-long linker domain that tethers the kinase/RNase domains to the transmembrane domain. All three constructs cleaved site-specifically 5′-32p-labeled stem-loop oligoribonucleotides 14 derived from the XBP1 mRNA (FIG. 1B, FIG. 8). […] No ADP.Mg co-factor was required for the cooperative activation of the RNase.
Ire1KR32 was co-crystallized with inhibitors that were designed to target CDK2 and EGFR kinases. Certain kinase inhibitors fully activated the RNase function of Ire1 (FIG. 3A). This is the first example of wild-type Ire1 activation by synthetic compounds.
Crystals obtained with the inhibitor APY29 allowed the structure determination of the Ire1KR32-APY29 complex at 3.9 Å resolution. A well-resolved density for the inhibitor molecule was found in the ATP binding pocket of the Ire1 kinase domain (FIG. 3B). APY29 forms an extensive hydrogen-bonding network with the protein backbone formed by E746, L747, and C748 (FIG. 3C). Hydrogen bonds are likely to also form with two side chains at the active site, N751, and D828. […] Manual fitting of sunitinib guided by know structures of kinase.inhibitor complexes (e.g., PDB IDs 2G9X and 2F4J) predicts that the compound fills the nucleobase site, but not the sugar and the phosphate sub-sites. […] AIN54 could not be readily fit to the ATP pocket due to steric clashes arising partly because of the unusual position of beta strand β1 that covers the nucleotide-binding pocket of the Ire1 kinase.
This structural difference provides an excellent tool to test the role of magnesium in the RNase activity of Ire1. Accordingly, the effect of EDTA on the RNase activity of Ire1KR32 was examined.

[2] = test system: Xbp-1 mRNA splicing (UPR activation through Ire1) in HEK293 cells; assay: XBP-1 mRNA splicing by RT-PCR in HEK293 cells (UPR); type: cell-based, mammalian; settings: for % splicing mRNA XBP-I Average: Hek293 cells treated for 4 hrs, RT-PCR; for in vivo activation of Ire1: summary statement
Procedure: The effect of tunicamycin, SU11248, DJM2005, APY24, and APY29 on Ire1 activity was tested in mammalian cells using HEK293 cells as a model system. Cells were treated according to the methods described in Lin J H et al., Science 318:944 (2007). After treatment with the corresponding agents for the indicated time, Xbp-1 mRNA splicing was determined by RT-PCR. Unspliced (u) and spliced (s) Xbp1-mRNA products are indicated and serve as a measure of UPR activation through Ire1.
Exemplary compounds were assayed for their effect on UPR. Results are set forth in FIGS. 18-19 and in the table below.

[3] = biological target: T2, yIre1 (Saccharomyces cerevisiae, UniProt P32361); assay: RNA cleavage-based yIre1 activation assay; type: biochemical, yeast; design: unit not given here; settings: 3 μM yIre1, stem loop RNA, 15 μM effector
T2 construct: GST (N); made in house; host or cells: E. coli BL21 CodonPlus (RIPL)
T2 sequence (P32361 with tags, fused parts or gaps limits assumed): T1 sequence (P32361 with tags, fused parts or gaps)
Procedure: The RNase Cleavage Assay.
as §1
RNA cleavage can be used to assess yIre1 activation as shown by FIG. 20 and the table below (3 μM yIre1, stem loop RNA, 15 μM effector): […]

[4] = test system: XBP1-GFP reporter in Hek293-FT cells; assay: FACS on Hek293-FT cells transfected with XBP1-GFP reporter; type: cell-based; settings: treated for 24 hrs
Procedure: Exemplary compounds were assayed and the results are set froth in the table below.

[5] = test system: Ire1; assay: Summary statement of Ire1 activation or inhibition (assay not specified)

Molecule | effect of EDTA (chelation of magnesium) on RNase activity of Ire1KR32 stimulated by the substance ([1]; FIG. 3F) | increase of specific RNase activity by co-factor ([1]; HP21 substrate, Ire1KR, Ire1KR24, Ire1KR32 (FIG. 1D)) | % splicing mRNA XBP-I Average ([2]; Tm 0.3 ug/ml + compound 2 μM) [%] | % splicing mRNA XBP-I Average ([2]; compound 2 μM) [%] | % splicing mRNA XBP-I Average ([2]; compound 10 μM) [%] | RNA cleavage (yIre1 activation) [3] | % fold induction to Control ([4]; Tm 0.3 ug/ml + compound 2 uM) [%] | Mean fluorescence ([4]; Tm 0.3 ug/ml + compound 2 uM) | % fold induction to Control ([4]; compound 2 uM) [%] | Mean fluorescence ([4]; compound 2 uM) | inhibition of Ire1 [5] | in vivo activation of Ire1 [2] | activation of Ire1 [5] | % splicing mRNA XBP-I Average ([2]; Tm alone) [%] | % fold induction to Control ([4]; Tm alone) [%] | Mean fluorescence ([4]; Tm alone)
Nc1ncnc2c1ncn2[C@@H]1O[C@H](COP(=O)(O)OP(=O)(O)O)[C@@H](O)[C@H]1O [ADP, reference compound] | decreased by greater than an order of magnitude | two orders of magnitude |  |  |  |  |  |  |  |  |  |  |  |  |  | 
OCCc1ccc(Nc2nccc(Nc3cc(C4CCCCC4)n[nH]3)n2)cc1 [APY33] |  |  | 8 | 8 | 18 | 0.00232 | 49 | 3613 | 16 | 2811 | significant inhibition |  |  |  |  | 
N#CCc1ccc(Nc2nccc(Nc3cc(C4CCCCC4)n[nH]3)n2)cc1 [APY34] |  |  | 7 | 12 | 34 | 0.0014 | 78 | 4318 | 17 | 2836 |  |  |  |  |  | 
CC(=O)Nc1ccc(Nc2nccc(Nc3cc(C4CCCCC4)n[nH]3)n2)cc1 [APY36] |  |  | 16 | 10 | 19 | 0.000897 |  |  |  |  |  |  |  |  |  | 
N#CCc1ccc(Nc2nc(Nc3cc(C4CC4)n[nH]3)c3ccccc3n2)cc1 [APY65] |  |  | 29 | 22 | 51 | 0.005304 |  |  |  |  |  | significant in vivo activation | significant activation |  |  | 
N#CCc1ccc(Nc2nccc(Nc3cc(C4CCCC4)n[nH]3)n2)cc1 [APY67] |  |  | 21 | 20 | 66 | 0.006034 | −6 | 2289 | −4 | 2326 |  |  | significant activation |  |  | 
Cc1cc(Nc2cc(C3CC3)n[nH]2)nc(Nc2ccc(CC#N)cc2)n1 [APY69] |  |  | 36 | 23 | 40 | 0.06355 | 16 | 2805 | 18 | 2864 |  | significant in vivo activation | significant activation |  |  | 
CC(=O)Nc1ccc(Nc2nccc(Nc3cc(C4CCCC4)n[nH]3)n2)cc1 [APY75] |  |  | 44 | 9 | 17 | 0.00175 |  |  |  |  |  |  |  |  |  | 
OCCc1ccc(Nc2nccc(Nc3cc(C4CCCC4)n[nH]3)n2)cc1 [APY76] |  |  | 11 | 23 | 39 | 0.03994 |  |  |  |  |  | significant in vivo activation | significant activation |  |  | 
N#CCc1ccc(Nc2nccc(Nc3cc(C4CCC4)n[nH]3)n2)cc1 [APY77] |  |  | 37 | 21 | 37 | 0.006479 | 9 | 2648 | 6 | 2570 |  |  | significant activation |  |  | 
N#CCc1ccc(Nc2nc(Nc3cc(C4CCCC4)n[nH]3)c3ccccc3n2)cc1 [APY78] |  |  | 11 | 11 | 27 | 0.002028 |  |  |  |  |  |  |  |  |  | 
N#CCc1ccc(Nc2nc(Nc3cc(C4CCCCC4)n[nH]3)c3ccccc3n2)cc1 [APY79] |  |  |  |  |  | 0.000626 |  |  |  |  |  |  |  |  |  | 
Cc1cc(Nc2cc(C3CCCC3)n[nH]2)nc(Nc2ccc(CC#N)cc2)n1 [APY80] |  |  | 9 | 12 | 28 | 0.001022 |  |  |  |  | significant inhibition |  |  |  |  | 
N#CCc1ccc(Nc2nc(Nc3cc(C4CCC4)n[nH]3)c3ccccc3n2)cc1 [APY82] |  |  | 27 | 29 | 27 | 0.002172 |  |  |  |  |  | significant in vivo activation |  |  |  | 
Cc1cc(Nc2cc(C3CCC3)n[nH]2)nc(Nc2ccc(CC#N)cc2)n1 [APY83] |  |  | 29 | 21 | 55 | 0.02693 |  |  |  |  |  | significant in vivo activation | significant activation |  |  | 
N#CCc1ccc(Nc2nccc(Nc3cc(-c4cccs4)n[nH]3)n2)cc1 [APY84] |  |  | 12 | 21 | 60 | 0.004672 |  |  |  |  | significant inhibition | significant in vivo activation |  |  |  | 
Cc1ccc(-c2cc(Nc3nc(Nc4ccc(CC#N)cc4)nc4ccccc34)[nH]n2)s1 [APY85] |  |  | 13 | 15 | 14 | 0.003287 |  |  |  |  |  |  | significant activation |  |  | 
tunicamycin [Tm, reference compound] |  |  |  |  |  |  |  |  |  |  |  |  |  | 78 | 59 | 3869

Source: US9382230B2, “Methods and compositions for modulating Ire1, SRC and ABL activity” (The Regents of the University of California, priority 2008, dated 2016)
